Reference: patent US20230293470A1, “APPLICATION OF THYROID HORMONES AND ITS ANALOGUES IN PREPARATION OF DRUGS FOR TREATING ALPHA-THALASSEMIA” (SHANGHAI SPH RARE DISEASE PHARMACEUTICAL CO., LTD., priority 2020, published 2023)

Key:
[1] = system: zeta-globin gene (hbae5) expression in zebrafish embryos; test: qPCR of zeta-globin gene (hbae5) expression in zebrafish embryos; type: in vivo; conditions: 5 μmon, from 96 hours post fertilization, 24 hours treatment
Protocol: (§1) K562 cells were cultured in RPMI 1640 medium supplemented with 10% (v/v) fetal bovine serum; Hemin was dissolved into 0.2 mol/L NaOH solution, and the working concentration for treating K562 cells is 20 μmon; Triac, T3 and T4 were dissolved into dimethyl sulfoxide (DMSO), and the working concentration for treating K562 cells and zebrafish embryos is 20 μmon and 5 μmon, respectively.
During the development of zebrafish embryos, Triac, T3 and T4 were incubated with the zebrafish embryos at 96 hours post fertilization. After treatment with Triac, T3 and T4 for 24 hours, respectively, zebrafish embryos were collected. TRIzol reagent (Invitrogen) was used to extract total RNA, then a reverse transcription kit (ReverTra Ace, TOYOBO) was used to synthesize cDNA, and finally, a SYBRGreen Realtime PCR Master Mix (TOYOBO) reagent was used to perform quantitative PCR.
(§2) A quantitative PCR reaction system was as follows:
(§3) Conditions for a quantitative PCR reaction were as follows: • Hot start: 95° C., 10 minutes; • Denaturation: 95° C., 10 seconds; and • Annealing/stretching: 60° C., 30 seconds. • 40 cycles.
(§4) Dissolution Curve Analysis.

[2] = system: zeta-globin gene (hbae5) expression in zebrafish embryos; test: Whole-mount mRNA in situ hybridization (WISH) of zeta-globin gene (hbae5) in zebrafish embryos; type: in vivo; conditions: 5 μmon, from 96 hours post fertilization, 24 hours treatment
Protocol: as §1
During the development of zebrafish embryos, Triac, T3 and T4 were incubated with the zebrafish embryos at 96 hours post fertilization. After treatment with Triac, T3 and T4 for 24 hours, respectively, zebrafish embryos were fixed by 4% paraformaldehyde. The expression of zeta-globin gene (hbae5) was detected by Whole-mount mRNA in situ hybridization (WISH).

[3] = system: zeta-globin gene (HBZ) expression in K562 cells; test: qPCR of zeta-globin gene (HBZ) expression in hemin-treated K562 cells; type: cell-based, human; conditions: hemin 20 μmon plus Triac 20 μmon, 72 hours
Protocol: as §1
K562 cells were treated with hemin or hemin plus Triac for 72 hours, respectively, centrifugation was performed at 2000 rpm for 5 minutes to collect cells, a TRIzol reagent (Invitrogen) was used to extract total RNA, then a reverse transcription kit (ReverTra Ace, TOYOBO) was used to synthesize cDNA, and finally, a SYBR Green Realtime PCR Master Mix (TOYOBO) reagent was used to perform quantitative PCR.
as §2, §3, §4

Compound	up-regulation of expression of zeta-globin gene (hbae5), qPCR [1] [folds]	induction of expression of zeta-globin gene (hbae5), WISH [2]	up-regulation of expression of zeta-globin gene (HBZ), qPCR [3] [folds]
N[C@@H](Cc1cc(I)c(Oc2ccc(O)c(I)c2)c(I)c1)C(=O)O [T3, 3,3′,5-Triiodo-L-thyronine]	31	significantly induce	
N[C@@H](Cc1cc(I)c(Oc2cc(I)c(O)c(I)c2)c(I)c1)C(=O)O [T4, 3,3′,5,5′-tetraiodothyronine]	41	significantly induce	
O=C(O)Cc1cc(I)c(Oc2ccc(O)c(I)c2)c(I)c1 [Triac, 2-[4-(4-hydroxy-3-iodophenoxy)-3,5-diiodophenyl] acetic acid]	76	significantly induce	50.9
